Biological target: T1, IRAK4 (Homo sapiens, UniProt Q9NWZ3)
T1 construct: C-terminal HiBiT-tagged Jurkat cells (polyclonal cell line or clone 8D5); endogenous in cells; host or cells: Jurkat cells (polyclonal cell line or clone 8D5), HiBiT-tagged
T1 sequence (Q9NWZ3 1-460): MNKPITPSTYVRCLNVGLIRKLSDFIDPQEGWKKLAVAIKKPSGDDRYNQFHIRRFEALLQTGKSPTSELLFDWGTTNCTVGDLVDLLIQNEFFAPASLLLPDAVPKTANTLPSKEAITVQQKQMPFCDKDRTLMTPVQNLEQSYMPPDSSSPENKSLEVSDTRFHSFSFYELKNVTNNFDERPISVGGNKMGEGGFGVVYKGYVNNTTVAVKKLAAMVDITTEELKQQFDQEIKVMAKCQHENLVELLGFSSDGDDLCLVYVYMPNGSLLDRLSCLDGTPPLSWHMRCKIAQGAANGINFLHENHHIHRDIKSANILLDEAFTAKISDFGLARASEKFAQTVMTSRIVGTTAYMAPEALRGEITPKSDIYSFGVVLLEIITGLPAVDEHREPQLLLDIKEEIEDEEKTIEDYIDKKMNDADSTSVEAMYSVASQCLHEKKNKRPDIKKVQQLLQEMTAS
Assay: IRAK4 Degradation HiBit Assay
Assay type: cell-based
Details: C-terminal HiBiT-tagged Jurkat cells, 4 hrs incubation; for DC50: % IRAK4 remaining, four-parameter fit (IC50 used as DC50); for Dmax: from fit of % IRAK4 remaining, read-out: Dmax
Protocol: Compound dilution series (11-point, 3.16-fold dilutions in DMSO, columns 1-11 and 12-22) at 500× the final required concentrations were prepared in Labcyte LDV 384-well plates (cat. no. LP-0200) using a Labcyte Echo 550 Liquid Handler. The 500× solutions ranged from 5 mM to 0.5 μM (final assay concentration range 10 μM to 0.1 nM). Using the Echo, the 500× solutions were stamped into white, 384-well assay plates (Corning, cat. no. 3570) at 60 nL/well. The following assay plate controls were also stamped at 60 nL/well: DMSO in wells E23-P23 (NC, Negative Control, maximum signal), 5 mM solution control compound al in wells A23-D23 and M24-P24 (AC, Active Control, minimum signal/background, 10 μM final assay concentration), control compound al dilution series in wells […] (12-point, 4-fold dilutions). C-terminal HiBiT-tagged Jurkat cells (polyclonal cell line or clone 8D5) were plated at 1×10^6 cells/mL, 30 μL/well (3×10^4 cells/well) in complete RPMI (10% FBS, 1% L-glutamine). Cells were incubated for 4 hrs at 32° C./6% CO2. Compound al has the following structure:
Following incubation, 30 μL of complete Nano-Glo HiBiT Lytic Detection Reagent (Nano-Glo HiBiT Lytic Buffer with 1:50 Nano-Glo HiBiT Lytic Substrate and 1:100 LgBiT Protein; Promega cat. no. N3040) was added. Cells were further incubated for 10 min at room temperature (RT). Luminescence units (LU) were read on an EnVision plate reader (Perkin Elmer, 0.1 sec per well). Percent IRAK4 remaining per sample was calculated as follows: […]
Using Graphpad Prism, % IRAK4 remaining values were plotted as a function of compound concentration. To determine DC50 and Dmax values, resulting curves were fit to the Prism curve-fitting equation “log (inhibitor) vs response-Variable slope (four parameters)” (reported best fit value IC50 used as DC50). Table 1 summarizes the biological data of Compounds of Examples 1-137 and 142-145 obtained from the assays described herein.

SMILES	DC50 [nM]	Dmax [%]
CC(C)Nc1cc(-c2ccc3cc(C#N)cnn23)ncc1-c1nnc(N2CCN(CC3CCN(c4ccc(C5CCC(=O)NC5=O)cn4)CC3)C3(CC3)C2)s1 (racemic) [Example 7, rac-7-[5-(5-{4-[(1-{5-[(3R)-2,6-dioxopiperidin-3-yl]pyridin-2-yl}piperidin-4-yl)methyl]-4,7-diazaspiro[2.5]octan-7-yl}-1,3,4-thiadiazol-2-yl)-4-[(propan-2-yl)amino]pyridin-2-yl]pyrrolo[1,2-b]pyridazine-3-carbonitrile]	129	17
N#Cc1cnn2c(-c3cc(NC4CCOCC4)c(-c4nnc(N5CCN(CC6CCN(c7ccc(C8CCC(=O)NC8=O)cc7)CC6)CC5)s4)cn3)ccc2c1 (racemic) [Example 9, rac-7-[5-(5-{4-[(1-{4-[(3R)-2,6-dioxopiperidin-3-yl]phenyl}piperidin-4-yl)methyl]piperazin-1-yl}-1,3,4-thiadiazol-2-yl)-4-[(oxan-4-yl)amino]pyridin-2-yl]pyrrolo[1,2-b]pyridazine-3-carbonitrile]	69	90
CC(C)Nc1cc(-c2ccc3cc(C#N)cnn23)ncc1-c1nnc(N2CCN(C[C@@H]3CCN(c4ccc([C@H]5CCC(=O)NC5=O)cn4)C3)CC2)s1 (racemic) [Example 10, 7-{5-[5-(4-{[(3RS)-1-{5-[(3RS&)-2,6-dioxopiperidin-3-yl]pyridin-2-yl}pyrrolidin-3-yl]methyl}piperazin-1-yl)-1,3,4-thiadiazol-2-yl]-4-[(propan-2-yl)amino]pyridin-2-yl}pyrrolo[1,2-b]pyridazine-3-carbonitrile]	41	71
N#Cc1cnn2c(-c3cc(NC4CCOCC4)c(-c4nnc(N5CCN(CC6CCN(c7cncc(C8CCC(=O)NC8=O)c7)CC6)CC5)s4)cn3)ccc2c1 (racemic) [Example 11, rac-7-[5-(5-{4-[(1-{5-[(3R)-2,6-dioxopiperidin-3-yl]pyridin-3-yl}piperidin-4-yl)methyl]piperazin-1-yl}-1,3,4-thiadiazol-2-yl)-4-[(oxan-4-yl)amino]pyridin-2-yl]pyrrolo[1,2-b]pyridazine-3-carbonitrile]	32	77
N#Cc1cnn2c(-c3cc(NC4CCOCC4)c(-c4nnc(N5CCN(CC6CCN(c7cc(C8CCC(=O)NC8=O)ccn7)CC6)CC5)s4)cn3)ccc2c1 (racemic) [Example 12, rac-7-[5-(5-{4-[(1-{4-[(3R)-2,6-dioxopiperidin-3-yl]pyridin-2-yl}piperidin-4-yl)methyl]piperazin-1-yl}-1,3,4-thiadiazol-2-yl)-4-[(oxan-4-yl)amino]pyridin-2-yl]pyrrolo[1,2-b]pyridazine-3-carbonitrile]	36	60
N#Cc1cnn2c(-c3cc(NC4CCOCC4)c(-c4nnc(N5CCN(C[C@@H]6CCN(c7ccc([C@H]8CCC(=O)NC8=O)cn7)C6)CC5)s4)cn3)ccc2c1 (racemic) [Example 13, 7-{5-[5-(4-{[(3RS)-1-{5-[(3RS&)-2,6-dioxopiperidin-3-yl]pyridin-2-yl}pyrrolidin-3-yl]methyl}piperazin-1-yl)-1,3,4-thiadiazol-2-yl]-4-[(oxan-4-yl)amino]pyridin-2-yl}pyrrolo[1,2-b]pyridazine-3-carbonitrile]	32	66
N#Cc1cnn2c(-c3cc(NC4CCOCC4)c(-c4nnc(N5CCN(CCC6CCN(c7ccc(C8CCC(=O)NC8=O)cn7)CC6)CC5)s4)cn3)ccc2c1 (racemic) [Example 14, rac-7-[5-(5-{4-[2-(1-{5-[(3R)-2,6-dioxopiperidin-3-yl]pyridin-2-yl}piperidin-4-yl)ethyl]piperazin-1-yl}-1,3,4-thiadiazol-2-yl)-4-[(oxan-4-yl)amino]pyridin-2-yl]pyrrolo[1,2-b]pyridazine-3-carbonitrile]	70	81
N#Cc1cnn2c(-c3cc(NC4CCOCC4)c(-c4nnc(N5CCN(C(=O)CN6CCN(c7cc(C8CCC(=O)NC8=O)ccn7)CC6)CC5)s4)cn3)ccc2c1 (racemic) [Example 15, rac-7-[5-(5-{4-[2-(4-{4-[(3R)-2,6-dioxopiperidin-3-yl]pyridin-2-yl}piperazin-1-yl)acetyl]piperazin-1-yl}-1,3,4-thiadiazol-2-yl)-4-[(oxan-4-yl)amino]pyridin-2-yl]pyrrolo[1,2-b]pyridazine-3-carbonitrile]	15	60
N#Cc1cnn2c(-c3cc(NC4CCOCC4)c(-c4nnc(N5CCN(C(=O)C6CCN(c7cc(C8CCC(=O)NC8=O)ccn7)CC6)CC5)s4)cn3)ccc2c1 (racemic) [Example 16, rac-7-(5-{5-[4-(1-{4-[(3R)-2,6-dioxopiperidin-3-yl]pyridin-2-yl}piperidine-4-carbonyl)piperazin-1-yl]-1,3,4-thiadiazol-2-yl}-4-[(oxan-4-yl)amino]pyridin-2-yl)pyrrolo[1,2-b]pyridazine-3-carbonitrile]	26	62
N#Cc1cnn2c(-c3cc(NC4CCOCC4)c(-c4nnc(N5CCN(C(=O)[C@H]6CCN(c7ccc([C@@H]8CCC(=O)NC8=O)cn7)C6)CC5)s4)cn3)ccc2c1 (racemic) [Example 17, 7-[5-(5-{4-[(3RS)-1-{5-[(3RS&)-2,6-dioxopiperidin-3-yl]pyridin-2-yl}pyrrolidine-3-carbonyl]piperazin-1-yl}-1,3,4-thiadiazol-2-yl)-4-[(oxan-4-yl)amino]pyridin-2-yl]pyrrolo[1,2-b]pyridazine-3-carbonitrile]	12	100
N#Cc1cnn2c(-c3cc(NC4CCOCC4)c(-c4nnc(N5CCN(C(=O)CC6CCN(c7ccc(C8CCC(=O)NC8=O)cn7)CC6)CC5)s4)cn3)ccc2c1 (racemic) [Example 18, rac-7-[5-(5-{4-[2-(1-{5-[(3R)-2,6-dioxopiperidin-3-yl]pyridin-2-yl}piperidin-4-yl)acetyl]piperazin-1-yl}-1,3,4-thiadiazol-2-yl)-4-[(oxan-4-yl)amino]pyridin-2-yl]pyrrolo[1,2-b]pyridazine-3-carbonitrile]	12	103
CC(C)Nc1cc(-c2ccc3cc(C#N)cnn23)ncc1-c1nnc(N2CCN(C(=O)CC3CCN(c4ccc(C5CCC(=O)NC5=O)cn4)CC3)CC2)s1 (racemic) [Example 19, rac-7-[5-(5-{4-[2-(1-{5-[(3R)-2,6-dioxopiperidin-3-yl]pyridin-2-yl}piperidin-4-yl)acetyl]piperazin-1-yl}-1,3,4-thiadiazol-2-yl)-4-[(propan-2-yl)amino]pyridin-2-yl]pyrrolo[1,2-b]pyridazine-3-carbonitrile]	29	103
CC(C)Nc1cc(-c2ccc3cc(C#N)cnn23)ncc1-c1nnc(N2CCN(C(=O)[C@@H]3CCN(c4ccc([C@H]5CCC(=O)NC5=O)cn4)C3)CC2)s1 (racemic) [Example 20, 7-[5-(5-{4-[(3RS)-1-{5-[(3RS&)-2,6-dioxopiperidin-3-yl]pyridin-2-yl}pyrrolidine-3-carbonyl]piperazin-1-yl}-1,3,4-thiadiazol-2-yl)-4-[(propan-2-yl)amino]pyridin-2-yl]pyrrolo[1,2-b]pyridazine-3-carbonitrile]	20	98
N#Cc1cnn2c(-c3cc(NC4CCOCC4)c(-c4nnc(C56CCC(C(=O)N7CCC(Oc8ccc(C9CCC(=O)NC9=O)cn8)CC7)(CC5)CC6)s4)cn3)ccc2c1 (racemic) [Example 21, rac-7-[5-(5-{4-[4-({5-[(3R)-2,6-dioxopiperidin-3-yl]pyridin-2-yl}oxy)piperidine-1-carbonyl]bicyclo[2.2.2]octan-1-yl}-1,3,4-thiadiazol-2-yl)-4-[(oxan-4-yl)amino]pyridin-2-yl]pyrrolo[1,2-b]pyridazine-3-carbonitrile]	60	91

— patent US12570662B2, “Substituted pyrrolo[1,2-b]pyridazines as bifunctional degraders of interleukin-1 receptor-associated kinases” (Nurix Therapeutics, Inc., priority 2021, dated 2026)
